{
  "source": "patent US20150250925A1",
  "about": "“[…] TISSUE, […] MODEL AND MANUFACTURING METHOD THEREFOR” (priority 2012, published 2015)",
  "format_in_all_cases": "cell-based, human",
  "key": {"[1]": {"tested_on": "dermal tissue layer (without dendritic cells)", "experiment": "Immune response evaluation: IL-6 ELISA after LPS addition, dermal tissue layer without dendritic cells", "settings": "LPS 0, 1, 10, 100 or 1000 ng/ml, 24 hours; layer does not include dendritic cells; FIG. 3", "description": "(§1) A dermal tissue layer including dendritic cells was prepared in the same manner as Example 1. The culture medium of the dermal tissue layer was changed to DMEM containing 10% FBS (the inside of the insert: 30 μl, the outside of the insert: 1 ml). Lipopolysaccharide (LPS, produced by Sigma-Aldrich Co. LLC.) was added to the inside of the insert and incubated for 24 hours. Then, all the culture medium in the outside of the insert was collected, and interleukin (IL)-6 was quantified by enzyme-linked immunosorbent assay (ELISA (R & D, D6056)). The concentration of the lipopolysaccharide was 0, 1, 10, 100, or 1000 ng/ml.\nA dermal tissue layer (without dendritic cells) was prepared in the same manner as Example 1 except that “only the NHDF coated cells” were used instead of “a mixture of the NHDF coated cells and the MoDC coated cells”. Using the dermal tissue layer, an immune response was evaluated in the same manner as described above.\n(§2) FIG. 3 is an example of a graph showing the relationship between the amount of LPS added and the amount of IL-6 produced from the dermal tissue layer."}, "[2]": {"tested_on": "dermal tissue layer including dendritic cells", "experiment": "Immune response evaluation: IL-6 ELISA after LPS addition, dermal tissue layer including dendritic cells", "settings": "24 hours, FIG. 3", "description": "as §1, §2"}, "[3]": {"tested_on": "artificial skin model including the epidermal layer", "experiment": "Immune response evaluation: IL-6 ELISA after LPS addition, artificial skin model of Example 4", "settings": "LPS 0-1000 ng/ml, 24 hours, FIG. 4", "description": "as §1\nFirst, a dermal tissue layer was prepared in the same manner as Example 1 and immersed in a 50 mM Tris-HCl solution (pH=7.4) containing collagen IV for 20 minutes, so that the dermal tissue layer was coated with collagen W Then, 1.8×10^5 KC were seeded and cultured in an adherent culture medium for 2 days. Subsequently, the KC were exposed to the air-liquid interface of a keratinized medium (multi-layered medium) for 7 days to induce differentiation, and thus an artificial skin model was prepared.\nUsing the artificial skin model, an immune response was evaluated in the same manner as Reference Example 1. […] FIG. 4 is an example of a graph showing the relationship between the amount of LPS added and the amount of IL-6 produced from the dermal tissue layer. […]"}, "[4]": {"tested_on": "dermal tissue layer with NHDF, NHDMEC and MoDC", "experiment": "CLSM observation of dermal tissue layer of Reference Example 2 after LPS addition", "settings": "1 μg/ml LPS, 30 hours after addition; FIG. 5", "description": "NHDF coated cells were seeded and cultured so that the NHDF were arranged in 4 layers. Then, NHDMEC (human dermal microvascular endothelial cells) coated cells were seeded and cultured on top of the NHDF layers so that the NHDMEC were arranged in 1 layer. Moreover, NHDF coated cells were seeded and cultured on the NHDMEC layer so that the NHDF were arranged in 4 layers. These layered cells were cultured in 2.3 ml of DMEM containing 10% FBS for 3 days. Subsequently, 5×10^4 MoDC were seeded and cultured in 2.3 ml of DMEM containing 10% FBS for 1 day. Thus, a dermal tissue layer was formed. The dermal tissue layer was placed in the insert, to which 1 μg/ml LPS was added. The dermal tissue layer was observed by a confocal laser scanning microscope for 30 hours.\nFIG. 5 is an example of a confocal laser scanning microscope (CLSM) image taken 30 hours after the addition of the LPS. […] Although the details of this are not clear, it is known that the dendritic cells are transferred to the lymphatic vessels when they are activated by an antigen in a living body. […] Moreover, it has been reported that, in a living body, a CC chemokine receptor 7 is expressed in the activated dendritic cells, while CC chemokine ligands 21, 19, which are ligands of the CC chemokine receptor 7, are produced in the lymphatic vessels. […]"}},
  "data": [
    {"substance": "Lipopolysaccharide [LPS]", "values": [
      {"measurement": "amount of IL-6 produced from the dermal tissue layer", "setting": "[1]", "value": "increases with an increase in the amount of LPS added"},
      {"measurement": "amount of IL-6 produced from the dermal tissue layer", "setting": "[2]; LPS 0, 1, 10, 100 or 1000 ng/ml, layer includes dendritic cells", "value": "increases with an increase in the amount of LPS added"},
      {"measurement": "amount of IL-6 produced, layer with dendritic cells compared to layer without", "setting": "[2]; LPS 0-1000 ng/ml", "value": "increases significantly"},
      {"measurement": "amount of IL-6 produced", "setting": "[3]", "value": "does not change with the amount of LPS added"},
      {"measurement": "overlap between dendritic cells and NHDMEC (CLSM image)", "setting": "[4]", "value": "state of overlap between the dendritic cells and the NHDMEC after the addition of the LPS is observed"}
    ]}
  ]
}
